Data as given in the NIST ThermoML archive (doi:10.1021/je0301951).

Test: wn = mass fraction of the nth substance listed
Conditions: Liquid, w2 = 1

binary diffusion coefficient (293 K) [m2/s]	binary diffusion coefficient (298 K) [m2/s]	binary diffusion coefficient (303 K) [m2/s]	binary diffusion coefficient (308 K) [m2/s]	binary diffusion coefficient (313 K) [m2/s]	SMILES
1.71e-09	1.9e-09	2.13e-09	2.47e-09	2.86e-09	O=C=O [carbon dioxide] + O
1.54e-09	1.8e-09	1.98e-09	2.29e-09	2.58e-09	[N-]=[N+]=O [nitrous oxide] + O
